Results taken from BindingDB's records for doi:10.1002/cbic.200700524 (Universit&#224, 2008).

Tests used:
Thymidylate synthase [1] = target: Thymidylate synthase (Escherichia coli (strain K12), UniProt P0A884); experiment: Inhibition Assay
Experimental: (§1) All compounds were screened for inhibitory activity against Lactobacillus casei thymidylate synthase (LcTS) and Escherichia coli thymidylate synthase (EsTS). The inhibition experiments were conducted by measuring the effects of the inhibitor at different concentrations on the initial velocity of the enzyme in the presence of a limited amount of the folate substrate.

Thymidylate synthase [2] = target: T1, Thymidylate synthase (Lacticaseibacillus casei, UniProt P00469); experiment: Inhibition Assay
T1 sequence (P00469 whole entry): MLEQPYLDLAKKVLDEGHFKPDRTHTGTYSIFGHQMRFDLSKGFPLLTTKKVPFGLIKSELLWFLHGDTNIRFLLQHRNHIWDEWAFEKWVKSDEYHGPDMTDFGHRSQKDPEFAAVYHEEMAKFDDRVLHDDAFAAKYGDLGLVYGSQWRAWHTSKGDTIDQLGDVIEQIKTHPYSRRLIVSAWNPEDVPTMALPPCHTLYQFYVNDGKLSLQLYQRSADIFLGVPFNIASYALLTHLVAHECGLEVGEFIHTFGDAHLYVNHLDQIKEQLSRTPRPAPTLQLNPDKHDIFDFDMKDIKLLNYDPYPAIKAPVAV
Experimental: as §1

Sequence of Thymidylate synthase (Escherichia coli (strain K12), UniProt P0A884) (P0A884 whole entry): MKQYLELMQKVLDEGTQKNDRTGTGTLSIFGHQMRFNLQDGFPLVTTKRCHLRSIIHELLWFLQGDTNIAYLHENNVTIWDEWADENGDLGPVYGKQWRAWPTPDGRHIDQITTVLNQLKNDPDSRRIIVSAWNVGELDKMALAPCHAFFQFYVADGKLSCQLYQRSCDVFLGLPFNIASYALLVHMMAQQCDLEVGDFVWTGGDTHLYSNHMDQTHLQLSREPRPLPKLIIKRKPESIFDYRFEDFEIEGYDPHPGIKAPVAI

| Structure (SMILES) | Ki (Thymidylate synthase [1]) [µM] | Ki (Thymidylate synthase [2]) [µM] |
| --- | --- | --- |
| CN(C)c1cccc2c(S(=O)(=O)N[C@@H](Cc3cc(I)c(OS(=O)(=O)c4cccc5c(N(C)C)cccc45)c(I)c3)C(=O)O)cccc12 [Dansyl derivative, 2L] | 8.2 | 4.4 |
| CN(C)c1cccc2c(S(=O)(=O)Oc3c(I)cc4c(c3I)CN(S(=O)(=O)c3cccc5c(N(C)C)cccc35)[C@H](C(=O)O)C4)cccc12 [Dansyl derivative, 2R] | 7 | 3.6 |
| CN(C)c1cccc2c(S(=O)(=O)Oc3ccc(C[C@H](NS(=O)(=O)c4ccc([N+](=O)[O-])cc4)C(=O)O)cc3)cccc12 [Dansyl derivative, 3L] | > 1330 | 2.5 |
| CN(C)c1cccc2c(S(=O)(=O)Oc3ccc4c(c3)CN(S(=O)(=O)c3ccc([N+](=O)[O-])cc3)[C@H](C(=O)O)C4)cccc12 [Dansyl derivative, 3R] | 23 | 5.9 |
| CN(C)c1cccc2c(S(=O)(=O)Oc3ccc(C[C@H](NC(=O)c4ccc([N+](=O)[O-])cc4)C(=O)O)cc3)cccc12 [Dansyl derivative, 4L] | > 1330 | 15 |
| CN(C)c1cccc2c(S(=O)(=O)Oc3ccc4c(c3)CN(C(=O)c3ccc([N+](=O)[O-])cc3)[C@H](C(=O)O)C4)cccc12 [Dansyl derivative, 4R] | 36 | 15 |
| CN(C)c1cccc2c(S(=O)(=O)Oc3ccc(C[C@H](NS(=O)(=O)c4ccc(C(F)(F)F)cc4[N+](=O)[O-])C(=O)O)cc3)cccc12 [Dansyl derivative, 5L] | > 636 | 6.7 |
| CN(C)c1cccc2c(S(=O)(=O)Oc3ccc4c(c3)CN(S(=O)(=O)c3ccc(C(F)(F)F)cc3[N+](=O)[O-])[C@H](C(=O)O)C4)cccc12 [Dansyl derivative, 5R] | 61 | 5.5 |
| CN(C)c1cccc2c(S(=O)(=O)Oc3ccc(C[C@H](NS(=O)(=O)CC45CCC(C(=O)C4)C5(C)C)C(=O)O)cc3)cccc12 (stereo not given in full) [Dansyl derivative, 6L] | > 1340 | 5.8 |
| CN(C)c1cccc2c(S(=O)(=O)Oc3ccc4c(c3)CN(S(=O)(=O)CC35CCC(C(=O)C3)C5(C)C)[C@H](C(=O)O)C4)cccc12 (stereo not given in full) [Dansyl derivative, 6R] | 131 | 23 |
| CN(C)c1cccc2c(S(=O)(=O)Oc3ccc(C[C@H](NC(=O)c4ccc5ccccc5c4)C(=O)O)cc3)cccc12 [Dansyl derivative, 7L] | > 1470 | 17 |
| CN(C)c1cccc2c(S(=O)(=O)Oc3ccc4c(c3)CN(C(=O)c3ccc5ccccc5c3)[C@H](C(=O)O)C4)cccc12 [Dansyl derivative, 7R] | 1530 | 9.4 |
| CN(C)c1cccc2c(S(=O)(=O)Oc3ccc(C[C@H](NS(=O)(=O)Cc4ccccc4)C(=O)O)cc3)cccc12 [Dansyl derivative, 8L] | > 1800 | 4.7 |
| CN(C)c1cccc2c(S(=O)(=O)Oc3ccc4c(c3)CN(S(=O)(=O)Cc3ccccc3)[C@H](C(=O)O)C4)cccc12 [Dansyl derivative, 8R] | 194 | 10 |
| CN(C)c1cccc2c(S(=O)(=O)Oc3ccc(C[C@H](NS(=O)(=O)c4cc(Br)c(Br)s4)C(=O)O)cc3)cccc12 [Dansyl derivative, 9L] | > 1330 | 27 |
| CN(C)c1cccc2c(S(=O)(=O)Oc3ccc4c(c3)CN(S(=O)(=O)c3cc(Br)c(Br)s3)[C@H](C(=O)O)C4)cccc12 [Dansyl derivative, 9R] | 60 | 4 |
| CN(C)c1cccc2c(S(=O)(=O)N[C@@H](Cc3ccc(OS(=O)(=O)c4cccc5c(N(C)C)cccc45)cc3)C(=O)O)cccc12 [Dansyl derivative, DDT, 1L] | 1.8 |  |
| CN(C)c1cccc2c(S(=O)(=O)Oc3ccc4c(c3)CN(S(=O)(=O)c3cccc5c(N(C)C)cccc35)[C@H](C(=O)O)C4)cccc12 [Dansyl derivative, rigid DDT, 1R] | 13 | 0.8 |
